Tested on: Monocotyledonous and dicotyledonous test plants
Assay: Herbicidal action, application pre-emergence (Example B1)
Format: in vivo
Design: key: 10=total damage to plant; 0=no damage to plant
Details: 1000 g/ha, evaluated after 9 or 13 days; for AGSTE herbicidal action (damage score 0-10): Agrostis-tenius; for AMARE herbicidal action (damage score 0-10): Amaranthus retroflexus; for DIGSA herbicidal action (damage score 0-10): Digitaria sanguinalis; for POATR herbicidal action (damage score 0-10): Poa trivialis; for SETIT herbicidal action (damage score 0-10): Setaria italica
Method: Monocotyledonous and dicotyledonous test plants were sown in sterilised standard soil in seed trays each having 96 cells. After one day (pre-emergence) under controlled conditions in a climatic chamber (cultivation at 23/17° C., day/night; 13 hours light; 50-60% humidity; after application at 24/19° C., day/night), the plants were treated with an aqueous spray solution of 1000 mg/l of the active ingredient used (including 10% DMSO as solvent). The plants were grown on in the climatic chamber until the test was evaluated (10=total damage to plant, 0=no damage to plant) after 9 or 13 days.

SMILES | AGSTE herbicidal action (damage score 0-10) | AMARE herbicidal action (damage score 0-10) | DIGSA herbicidal action (damage score 0-10) | POATR herbicidal action (damage score 0-10) | SETIT herbicidal action (damage score 0-10)
Cn1nc(C(F)(F)F)c(C[S+]([O-])C2=NOC(C)(C)C2Br)c1OCC(F)(F)F (mixture of isomers) [2.02] | 10 | 7 | 10 | 5 | 7
Cn1nc(C(F)(F)F)c(C[S+]([O-])C2=NOC(C)(C)C2F)c1OCC(F)(F)F (mixture of isomers) [2.08] | 10 | 10 | 10 | 10 | 10
Cn1nc(C(F)(F)F)c(C[S+]([O-])C2=NOC(C)(C)C2Cl)c1OC(F)F (mixture of isomers) [2.17] | 10 | 6 | 10 | 10 | 9
Cn1nc(C(F)(F)F)c(C[S+]([O-])C2=NOC(C)(C)C2F)c1OC(F)F (mixture of isomers) [2.23] | 10 | 10 | 10 | 10 | 10
Cn1cc(C[S+]([O-])C2=NOC(C)(C)C2F)c(C(F)(F)F)n1 (mixture of isomers) [2.33] | 10 | 6 | 9 | 9 | 9
CC(Oc1c(CS(=O)(=O)C2=NOC(C)(C)C2F)c(C(F)(F)F)nn1C)C(F)(F)F (mixture of isomers) [2.37] | 10 | 8 | 9 | 10 | 9
CCn1cc(C[S+]([O-])C2=NOC(C)(C)C2F)c(C(F)(F)F)n1 (mixture of isomers) [2.46] | 10 | 10 | 9 | 10 | 
C#CCn1cc(C[S+]([O-])C2=NOC(C)(C)C2F)c(C(F)(F)F)n1 (mixture of isomers) [2.49] | 10 | 10 | 10 | 10 | 
C=CCn1cc(C[S+]([O-])C2=NOC(C)(C)C2F)c(C(F)(F)F)n1 (mixture of isomers) [2.52] | 10 | 9 | 9 | 9 | 
COCCOc1c(C[S+]([O-])C2=NOC(C)(C)C2F)c(C(F)(F)F)nn1C (mixture of isomers) [2.58] | 10 | 10 | 10 | 10 | 
Cc1nc(C(F)(F)F)ccc1C[S+]([O-])C1=NOC(C)(C)C1F (mixture of isomers) [3.02] | 10 | 7 | 9 | 10 | 8
CC1(C)ON=C([S+]([O-])Cc2cccnc2Cl)C1F (mixture of isomers) [3.05] | 9 | 10 | 8 | 10 | 
Cn1cc(C(F)(F)F)c(C[S+]([O-])C2=NOC(C)(C)C2F)n1 (mixture of isomers) [4.02] | 10 | 9 | 9 | 10 | 9
Cn1nc(C(F)(F)F)cc1C[S+]([O-])C1=NOC(C)(C)C1F (mixture of isomers) [6.02] | 10 | 10 | 9 | 10 | 
Cn1nc(C(F)(F)F)cc1C[S+]([O-])C1=NOC(C)(C)C1F (mixture of isomers) [6.03] | 10 | 8 | 9 | 10 | 
Cn1nc(OC(F)F)cc1C[S+]([O-])C1=NOC(C)(C)C1F (mixture of isomers) [6.09] | 10 | 10 | 9 | 9 | 

SMILES | AGSTE herbicidal action (damage score 0-10) | AMARE herbicidal action (damage score 0-10) | DIGSA herbicidal action (damage score 0-10) | POATR herbicidal action (damage score 0-10) | SETIT herbicidal action (damage score 0-10)
COc1cc(C[S+]([O-])C2=NOC(C)(C)C2F)n(C)n1 (mixture of isomers) [6.12] | 10 | 10 | 10 | 10 | 
CC1(C)ON=C([S+]([O-])Cc2nn(C3CCCC3)nc2C(F)(F)F)C1F (mixture of isomers) [7.13] | 10 | 4 | 9 | 8 | 
COCCn1nc(C[S+]([O-])C2=NOC(C)(C)C2F)c(C(F)(F)F)n1 (mixture of isomers) [7.19] | 6 | 10 | 9 | 10 | 
Cn1ncc(C[S+]([O-])C2=NOC(C)(C)C2F)n1 (mixture of isomers) [7.22] | 9 | 0 | 8 | 9 | 
CCc1nn(C)nc1C[S+]([O-])C1=NOC(C)(C)C1F (mixture of isomers) [7.32] | 10 | 7 | 9 | 9 | 
CCn1ncc(C[S+]([O-])C2=NOC(C)(C)C2F)n1 (mixture of isomers) [7.35] | 10 | 8 | 9 | 9 | 
Cc1nn(C(C)C)nc1C[S+]([O-])C1=NOC(C)(C)C1F (mixture of isomers) [7.38] | 10 | 6 | 7 | 7 | 
Cn1nnc(Br)c1C[S+]([O-])C1=NOC(C)(C)C1F (mixture of isomers) [11.02] | 10 | 5 | 9 | 10 | 
CC(c1c(C(F)(F)F)nn(C)c1OCC(F)(F)F)S(=O)(=O)C1=NOC(C)(C)C1F (mixture of isomers) [Compound No. 2.12] | 10 | 6 | 9 | 10 | 9
CC(c1c(C(F)(F)F)nn(C)c1OC(F)F)S(=O)(=O)C1=NOC(C)(C)C1F (mixture of isomers) [Compound No. 2.27] | 10 | 10 | 10 | 10 | 10
CC1(C)ON=C([S+]([O-])Cc2c(F)cccc2F)C1F (single isomer, unassigned) [1.15] | 10 | 9 | 9 | 10 | 9
CC1(C)ON=C([S+]([O-])Cc2c(F)cccc2F)C1F (single isomer, unassigned) [1.16] | 10 | 8 | 10 | 10 | 6
Cn1nc(C(F)(F)F)c(C[S+]([O-])C2=NOC(C)(C)C2F)c1OCC(F)(F)F (single isomer, unassigned) [2.09] | 10 | 9 | 9 | 10 | 10
Cn1nc(C(F)(F)F)c(C[S+]([O-])C2=NOC(C)(C)C2F)c1OCC(F)(F)F (single isomer, unassigned) [2.10] | 10 | 8 | 10 | 10 | 9
Cn1nc(C(F)(F)F)c(C[S+]([O-])C2=NOC(C)(C)C2F)c1OC(F)F (single isomer, unassigned) [2.24] | 10 | 10 | 10 | 10 | 10
